Structures are written as SMILES.

Sequence of BTK (Q06187 402-655 limits assumed): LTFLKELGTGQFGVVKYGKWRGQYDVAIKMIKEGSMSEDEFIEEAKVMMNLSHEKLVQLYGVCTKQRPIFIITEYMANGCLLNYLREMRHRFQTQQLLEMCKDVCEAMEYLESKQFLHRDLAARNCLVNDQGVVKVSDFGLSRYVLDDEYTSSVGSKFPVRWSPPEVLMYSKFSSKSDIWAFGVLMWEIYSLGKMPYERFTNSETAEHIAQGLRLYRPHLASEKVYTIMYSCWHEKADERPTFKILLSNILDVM

One assay has as its target BTK (Homo sapiens, UniProt Q06187). The assay is described as follows: biochemical. Conditions: read-out: BTK inhibition (%).
Consider `C[C@](O)(COc1ccc(C#N)cc1)C(=O)Nc1ccc(C#N)c(C(F)(F)F)c1` [PCM-0095045], for which the inhibition at 10 µM was -0.8%.

`O=C1C([C@@H]2O[C@H](CO)[C@@H](O)[C@H](O)[C@H]2O)=C(O)/C(=C(O)/C=C/c2ccc(O)cc2)C(=O)C1(O)[C@@H]1O[C@H](CO)[C@@H](O)[C@H](O)[C@H]1O` (stereo partly drawn) [PCM-0216360]: the inhibition at 10 µM is 23.9%.

The assay is the same for the next values; noted with them: read-out: BTK inhibition (%), 0.75 uM BTK, […] probe 3l, 15 min preincubation.
Turning to `C=C(CCC=C(C)C)[C@H]1CC[C@]2(C)[C@@H]1[C@H](O)C[C@@H]1[C@@]3(C)CC[C@H](O[C@@H]4O[C@H](CO)[C@@H](O)[C@H](O)[C@H]4O[C@@H]4O[C@H](CO)[C@@H](O)[C@H](O)[C@H]4O)C(C)(C)[C@@H]3CC[C@]12C` [PCM-0216466], the inhibition at 10 µM is 6.2%.

Consider `O=c1cc(-c2ccc(O)cc2)oc2cccc(O)c12` [PCM-0216294], for which the inhibition at 10 µM worked out at 32.4%.

In the case of `Cc1ncc(-c2ccnc(Nc3ccc(S(C)(=O)=O)cc3)n2)n1C(C)C` [PCM-0095478], the inhibition at 10 µM came out at 48.3%.

As to `COc1cc(C(=O)NS(=O)(=O)c2ccccc2C)ccc1Cc1cn(C)c2ccc(NC(=O)OC3CCCC3)cc12` [PCM-0086066], the inhibition at 10 µM worked out at 47.6%.

Consider `CC(C)[C@H](N)C(=O)OCCOCn1cnc2c(=O)[nH]c(N)nc21` [PCM-0086005], for which the inhibition at 10 µM is -7.8%.

Take `C=C(c1ccc(C(=O)O)cc1)c1cc2c(cc1C)C(C)(C)CCC2(C)C` [PCM-0095260]: the inhibition at 10 µM is 14%.

As to `O[C@@H](c1cc(C(F)(F)F)nc2c(C(F)(F)F)cccc12)[C@H]1CCCCN1` [PCM-0214801], the inhibition at 10 µM is -4.7%.

In the case of `Cn1cnc2c(F)c(Nc3ccc(Br)cc3Cl)c(C(=O)NOCCO)cc21` [PCM-0094893], the inhibition at 10 µM was -6.9%.

With `Cc1ccccc1N1C(=O)c2cc(S(N)(=O)=O)c(Cl)cc2NC1C` (stereo not drawn) [PCM-0065217], the inhibition at 10 µM is -4.7%.

In the case of `C=C1/C(=C\C=C2/CCC[C@]3(C)[C@@H]([C@H](C)/C=C/[C@@H](O)C4CC4)CC[C@@H]23)C[C@@H](O)C[C@@H]1O` [PCM-0214926], the inhibition at 10 µM is 1.6%.

For `C[C@@]1(c2cc(-c3cncnc3)c(F)cc2F)CCSC(N)=N1` [PCM-0095088], the inhibition at 10 µM was -25.7%.

In the case of `O=c1[nH]c2ccccc2n1CCN1CCN(c2cccc(C(F)(F)F)c2)CC1` [PCM-0214925], the inhibition at 10 µM was -34.2%.

In the case of `Nc1ncnc2c1c(-c1cccc(OCc3ccccc3)c1)cn2C1CC(CN2CCCC2)C1` (stereo not drawn) [PCM-0095055], the inhibition at 10 µM came out at 13.2%.

With `CCN1CCN(Cc2ccc(Nc3ncc(F)c(-c4cc(F)c5nc(C)n(C(C)C)c5c4)n3)nc2)CC1` [PCM-0095736], the inhibition at 10 µM was -12.4%.

Take `O=C1NC(=O)/C(=C/c2cccc(C(F)(F)F)c2)S1` [PCM-0095598]: the inhibition at 10 µM amounted to 4.8%.

`O=C(Nc1ccncc1)c1cc([N+](=O)[O-])ccc1Cl` [PCM-0064887]: the inhibition at 10 µM came to 10.9%.

For `CC(C(=O)O)c1ccc2c(c1)CC(=O)c1ccccc1S2` (stereo not drawn) [PCM-0095453], the inhibition at 10 µM is -15.9%.

On to `COc1c(C)c2c(c(O)c1C/C=C(\C)CCC(=O)O)C(=O)OC2` [PCM-0090203], for which the inhibition at 10 µM is 19.3%.

Regarding `COc1cc(C2Oc3ccc([C@H]4Oc5cc(O)cc(O)c5C(=O)[C@@H]4O)cc3OC2CO)ccc1O` (stereo partly drawn) [PCM-0216498], the inhibition at 10 µM was determined as 21.6%.

For the compound `C[C@H]1O[C@@H](O[C@H]2CC[C@@]3(C)[C@@H](CC[C@]4(C)[C@@H]3C=C[C@]35OC[C@@]6(CCC(C)(C)C[C@H]63)[C@@H](O)C[C@]54C)[C@]2(C)CO)[C@H](O)[C@@H](O[C@@H]2O[C@H](CO)[C@@H](O)[C@H](O)[C@H]2O)[C@H]1O` [PCM-0216249], the inhibition at 10 µM is -23.4%.

`O=c1cc(-c2ccc(O)c(O)c2O)oc2ccccc12` [PCM-0215990]: the inhibition at 10 µM came to 34%.

`Cc1cc([N+](=O)[O-])ccc1NS(=O)(=O)c1cc(Cl)ccc1Cl` [PCM-0215330]: the inhibition at 10 µM was 11.6%.

Regarding `O=c1c(-c2ccc(O)cc2)coc2cc(O[C@@H]3O[C@H](CO)[C@@H](O)[C@H](O)[C@H]3O)cc(O)c12` [PCM-0214858], the inhibition at 10 µM was -9.3%.

In the case of `COc1cc2ncnc(Nc3ccc(F)c(Cl)c3)c2cc1NC(=O)/C=C/CN1CCCCC1` [PCM-0095444], the inhibition at 10 µM was determined as 18.6%.

On to `COc1ccc([C@H]2CNC(=O)C2)cc1OC1CCCC1` [PCM-0095307], for which the inhibition at 10 µM was 7%.

With `CC(=O)Nc1ccccc1` [PCM-0090657], the inhibition at 10 µM was -14.5%.

On to `O=C1CCN(c2ccccc2)N1` [PCM-0216111], for which the inhibition at 10 µM was -12.4%.

For `CCc1c2c(nc3ccccc13)-c1cc3c(c(=O)n1C2)COC(=O)[C@]3(O)CC` [PCM-0215967], the inhibition at 10 µM was -20.8%.

Take `CC[C@@H]1C(=O)N(C)c2cnc(Nc3ccc(C(=O)NC4CCC(N5CCN(CC6CC6)CC5)CC4)cc3OC)nc2N1C(C)C` (stereo partly drawn) [PCM-0095279]: the inhibition at 10 µM was -14.5%.

Regarding `C[C@@H]1CCO[C@H]2Cn3cc(C(=O)NCc4ccc(F)cc4F)c(=O)c(O)c3C(=O)N12` [PCM-0214696], the inhibition at 10 µM amounted to 30.4%.

Take `O=C(Cc1ccccc1)Nc1nnc(CCSCCc2nnc(NC(=O)Cc3ccccc3)s2)s1` [PCM-0215483]: the inhibition at 10 µM is 5.4%.

On to `NCCCC[C@@H]1NC(=O)[C@@H](Cc2ccccc2)NC(=O)[C@H](CC(=O)O)NC(=O)CNC(=O)[C@H](CCCN=C(N)N)NC1=O` [PCM-0215471], for which the inhibition at 10 µM was -10%.

Consider `CC(=O)NC(CC(C)C)C(=O)O` (stereo not drawn) [PCM-0214817], for which the inhibition at 10 µM stood at 1.6%.

Take `Clc1ccc(C2(c3ccc(-c4cn[nH]c4)cc3)CCNCC2)cc1` [PCM-0095120]: the inhibition at 10 µM was found to be 6.9%.

Regarding `O=P(O)(O)OC(CO)CO` [PCM-0215880], the inhibition at 10 µM was determined as 11.9%.

As to `N[C@@H]1CONC1=O` [PCM-0064462], the inhibition at 10 µM was -11.9%.

On to `CC(C)=CC[C@@H](O)C1=CC(=O)c2c(O)ccc(O)c2C1=O` [PCM-0215694], for which the inhibition at 10 µM was determined as 69.7%.

With `O=[N+]([O-])c1ccc(Nc2nc(N3CCOCC3)nc(N3CCOCC3)n2)cc1` [PCM-0215468], the inhibition at 10 µM was determined as 0%.

Turning to `O=C(c1ccc(Nc2nccc(-c3cc4ccccc4s3)n2)cc1)N1CCC(N2CCCC2)CC1` [PCM-0095335], the inhibition at 10 µM is 86.2%.

`COc1ccc(/C=C/c2cc(OC)cc(=O)o2)cc1` [PCM-0216316]: the inhibition at 10 µM is -2.3%.

Turning to `CC[C@@](C)(Nc1ccnc(-c2c[nH]c3ncccc23)n1)C(=O)NCC(F)(F)F` [PCM-0215573], the inhibition at 10 µM was determined as 2.1%.

For `CC(C)(C(=O)O)c1ccc(C(O)CCCN2CCC(C(O)(c3ccccc3)c3ccccc3)CC2)cc1` (stereo not drawn) [PCM-0065056], the inhibition at 10 µM is -10.3%.

In the case of `CC(C)c1ccc(NC(=O)Cn2cnc3c2c(=O)n(C)c(=O)n3C)cc1` [PCM-0095403], the inhibition at 10 µM was -12.5%.

As to `COc1ccc2c(c1OC)CN1CCc3cc4c(cc3C1C2)OCO4` (stereo not drawn) [PCM-0216126], the inhibition at 10 µM was 13.1%.

For the compound `COc1ccc2c(c1)/C(=C/c1cnc[nH]1)C(=O)N2` [PCM-0101915], the inhibition at 10 µM worked out at 47.6%.

`Cc1cc(C(=O)NOCCO)c(Nc2ccc(I)cc2F)n(C)c1=O` [PCM-0095312]: the inhibition at 10 µM worked out at 2.1%.

As for `C=C1[C@H]2C[C@@]3([C@@H]1O)[C@@H](CC2=O)[C@]12[C@@H]4C[C@H]3[C@H]1N(CC)C[C@]4(C)CC[C@@H]2O` [PCM-0216364], the inhibition at 10 µM came out at 19.3%.

`CCCC(=O)Nc1ncnc2c1ncn2[C@@H]1O[C@@H]2COP(=O)(O)O[C@H]2[C@H]1OC(=O)CCC` [PCM-0215503]: the inhibition at 10 µM came to 4.6%.

With `Clc1ccc(N/N=C(\c2ccccc2)c2ccccn2)nc1` [PCM-0215265], the inhibition at 10 µM amounted to 6.2%.

As to `CCCCCCC[C@H](O)CC(=O)CCc1ccc(O)c(OC)c1` [PCM-0216329], the inhibition at 10 µM was -41.7%.

As to `CC(C)NCC(O)c1ccc(O)c(O)c1` (stereo not drawn) [PCM-0065609], the inhibition at 10 µM stood at 7%.

Regarding `COC(=O)C1=CO[C@@H](O[C@@H]2O[C@H](CO)[C@@H](O)[C@H](O)[C@H]2O)[C@@H]2[C@@H](C)CC(=O)[C@]12O` [PCM-0216345], the inhibition at 10 µM was -3.1%.

Turning to `CN1CCN(C(=O)c2cc3cc(Cl)ccc3[nH]2)CC1` [PCM-0095374], the inhibition at 10 µM is -2.1%.

On to `CC(C)OC(=O)[C@H](C)N[P@](=O)(OC[C@H]1O[C@@H](n2ccc(=O)[nH]c2=O)[C@](C)(F)[C@@H]1O)Oc1ccccc1` [PCM-0214785], for which the inhibition at 10 µM is 13.2%.

As to `CC(NC(=O)[C@H](Cc1ccccc1)NC(=O)OCc1ccccc1)C(=O)CF` (stereo partly drawn) [PCM-0215313], the inhibition at 10 µM is -3.1%.

`NCCc1ccc(O)c(O)c1` [PCM-0065130]: the inhibition at 10 µM is -2.3%.

For `N#Cc1ccc(COC[C@H]2O[C@@H](n3c(NCc4ccc(Cl)c(Cl)c4)nc4c(N)ncnc43)[C@H](O)[C@@H]2O)cc1` [PCM-0215474], the inhibition at 10 µM came out at 7.7%.

As for `c1cn2cc(-c3ccc4cn[nH]c4c3)nc(Nc3ccc(N4CCOCC4)cc3)c2n1` [PCM-0095758], the inhibition at 10 µM worked out at 33.8%.

Turning to `CC(=O)Nc1nc(-c2cccc(NS(=O)(=O)c3cccc4c(N(C)C)cccc34)c2)cs1` [PCM-0215679], the inhibition at 10 µM came out at 97.3%.

On to `C=C(C)[C@@H]1CC[C@]2(C(=O)O)CC[C@]3(C)[C@H](CC[C@@H]4[C@@]5(C)CCC(=O)C(C)(C)[C@@H]5CC[C@]43C)[C@@H]12` [PCM-0215047], for which the inhibition at 10 µM was determined as 66.9%.

On to `Cc1ccc(CNc2ncnc3ccc(-c4ccc(CO)o4)cc23)o1` [PCM-0215296], for which the inhibition at 10 µM was 6.9%.

Consider `CCNC(=O)c1noc(-c2cc(Cl)c(O)cc2O)c1-c1ccc(OC)cc1` [PCM-0215317], for which the inhibition at 10 µM stood at 11.6%.

In the case of `C[C@@H](NC(=O)c1ncnc(N)c1Cl)c1ncc(C(=O)Nc2cc(C(F)(F)F)c(Cl)cn2)s1` [PCM-0215620], the inhibition at 10 µM was -12.4%.

With `C=C(C)[C@@H]1CCC2=CC(=O)C[C@@H](C)[C@]2(C)C1` [PCM-0216368], the inhibition at 10 µM came out at 12.4%.

On to `COCC(=O)Nc1cc(Sc2ccccc2)ccc1N=C(NC(=O)OC)NC(=O)OC` [PCM-0216017], for which the inhibition at 10 µM came to 11.6%.

`O=C(O)C(=O)CBr` [PCM-0216160]: the inhibition at 10 µM stood at 6.2%.

As for `CCCC(=O)NCCc1csc(-c2ccc(Cl)cc2)n1` [PCM-0215869], the inhibition at 10 µM is 2.3%.

For the origin of these results see article PMC8041284, “Tunable Methacrylamides for Covalent Ligand Directed Release Chemistry” (Journal of the American Chemical Society, 2021).
